Test: ESI positive response factor (isotope-corrected peak area per molar concentration) in SFC/ESI/HRMS (area units per M); higher = higher ionization efficiency
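Also: standards in acetonitrile/water run in triplicate on a zwitterionic HILIC column, CO2–methanol gradient containing 20 mmol/L ammonium acetate, postcolumn makeup flow, Orbitrap full-scan detection.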

ESI positive response factor (0.0175 µM)	ESI positive response factor (0.0875 µM)	SMILES	ESI positive response factor (0.035 µM)	ESI positive response factor (0.175 µM)	ESI positive response factor (0.35 µM)	ESI positive response factor (0.244 µM)	further results
6.5e+16	8.81e+16	CN=C(NC#N)NCCSCc1nc[nH]c1C [Cimetidine]	9.26e+16	8.23e+16	9.32e+16	–	ESI positive response factor (0.875 µM): 8.86e+16
–	–	Nc1ccnc(=O)[nH]1 [Cytosine]	–	–	2.81e+15	–	ESI positive response factor (0.875 µM): 3.21e+15; ESI positive response factor (1.75 µM): 3.05e+15
–	–	CCN(CC)C(=O)c1cccc(C)c1 [DEET]	–	–	4.74e+17	–	ESI positive response factor (0.875 µM): 4.86e+17
–	2.45e+15	CN(C)N/N=C1/N=CN=C1C(N)=O [Dacarbazine]	–	5.22e+15	–	–	–
6.07e+16	8.16e+16	Nc1ccc(S(=O)(=O)c2ccc(N)cc2)cc1 [Dapson]	8.29e+16	–	–	–	–
–	–	O=C(O)Cc1ccccc1Nc1c(Cl)cccc1Cl [Diclofenac]	–	–	3.71e+15	–	ESI positive response factor (0.875 µM): 5.3e+15; ESI positive response factor (1.75 µM): 5.19e+15
7.67e+16	6.02e+16	COC(=O)CCCCCCCCC(=O)OC [Dimethylsebacate]	7.64e+16	5.72e+16	–	–	–
1.59e+17	2.16e+17	CN(C)CCOC(c1ccccc1)c1ccccc1 [Diphenhydramine]	2.23e+17	2.35e+17	2.4e+17	–	ESI positive response factor (0.875 µM): 2.25e+17
–	9.06e+15	CCN[C@H]1C[C@H](C)S(=O)(=O)c2sc(S(N)(=O)=O)cc21 [Dorzolamide]	8.5e+15	1.22e+16	1.22e+16	–	ESI positive response factor (0.875 µM): 1.24e+16; ESI positive response factor (1.75 µM): 1.24e+16
2.87e+17	3.2e+17	CCOC(=O)[C@H](CCc1ccccc1)N[C@@H](C)C(=O)N1CCC[C@H]1C(=O)O [Enalapril]	3.29e+17	3.2e+17	–	–	–
9.45e+16	9.42e+16	CCOC(=O)CN1CCCC1=O [Ethyl 2-oxo-1-pyrrolidineacetate]	9.95e+16	–	–	–	–
–	2.45e+16	NC(N)=Nc1nc(CSCCC(N)=NS(N)(=O)=O)cs1 [Famotidin]	–	3.25e+16	3.73e+16	–	ESI positive response factor (0.875 µM): 3.76e+16; ESI positive response factor (1.75 µM): 3.72e+16
5.41e+17	5.34e+17	CCOC(=O)NCCOc1ccc(Oc2ccccc2)cc1 [Fenoxycarb]	5.89e+17	–	–	–	–
9.5e+16	1.1e+17	CNCCC(Oc1ccc(C(F)(F)F)cc1)c1ccccc1 (stereo not drawn) [Fluoxetine]	1.16e+17	1.05e+17	–	–	–
–	–	NCC1(CC(=O)O)CCCCC1 [Gabapentin]	–	–	–	2.98e+16	ESI positive response factor (0.61 µM): 2.83e+16; ESI positive response factor (1.22 µM): 3.28e+16
–	–	NC(=O)N=C(N)N [Guanylurea]	–	–	–	2.7e+15	ESI positive response factor (0.61 µM): 2.53e+15; ESI positive response factor (1.22 µM): 2.64e+15
–	–	CC(Oc1ccc(Oc2ncc(C(F)(F)F)cc2Cl)cc1)C(=O)O (stereo not drawn) [Haloxyfop]	–	–	–	5.62e+15	ESI positive response factor (0.61 µM): 5.23e+15; ESI positive response factor (1.22 µM): 4.69e+15
–	–	COc1ccc2c(c1)c(CC(=O)O)c(C)n2C(=O)c1ccc(Cl)cc1 [Indomethacin]	–	–	–	1.53e+16	ESI positive response factor (0.122 µM): 1.45e+16; ESI positive response factor (0.61 µM): 1.99e+16
–	–	COCC(=O)Nc1c(I)c(C(=O)NCC(O)CO)c(I)c(C(=O)N(C)CC(O)CO)c1I (stereo not drawn) [Iopromide]	–	–	–	–	ESI positive response factor (0.61 µM): 1.19e+15; ESI positive response factor (1.22 µM): 1.27e+15
–	–	O=C(O)[C@@H]1C[C@@H](O)CN1 [L-Hydroxyprolin]	–	–	–	3.07e+15	ESI positive response factor (0.122 µM): 2.76e+15; ESI positive response factor (0.61 µM): 2.85e+15
–	–	N[C@@H](Cc1ccccc1)C(=O)O [L-Phenylalanin]	–	–	–	1.44e+16	ESI positive response factor (0.122 µM): 1.51e+16; ESI positive response factor (0.61 µM): 1.27e+16
–	–	N[C@@H](Cc1ccc(O)cc1)C(=O)O [L-Tyrosine]	–	–	–	3.05e+15	ESI positive response factor (0.061 µM): 2.58e+15; ESI positive response factor (0.122 µM): 2.67e+15
–	–	Nc1cccc2c1CN(C1CCC(=O)NC1=O)C2=O (stereo not drawn) [Lenalidomid]	–	–	–	4.65e+14	ESI positive response factor (0.61 µM): 5.58e+14; ESI positive response factor (1.22 µM): 7.56e+14
–	–	CON(C)C(=O)Nc1ccc(Cl)c(Cl)c1 [Linuron]	–	–	–	4.46e+16	ESI positive response factor (0.0122 µM): 4.3e+16; ESI positive response factor (0.0244 µM): 3.86e+16; ESI positive response factor (0.061 µM): 4.29e+16; ESI positive response factor (0.122 µM): 4.05e+16
–	–	NCCCC[C@H](N[C@@H](CCc1ccccc1)C(=O)O)C(=O)N1CCC[C@H]1C(=O)O [Lisinopril]	–	–	–	1.58e+16	ESI positive response factor (0.0122 µM): 7.7e+15; ESI positive response factor (0.0244 µM): 1.4e+16; ESI positive response factor (0.061 µM): 1.89e+16; ESI positive response factor (0.122 µM): 1.43e+16
–	–	Nc1nc(N)nc(N)n1 [Melamine]	–	–	–	1.82e+16	ESI positive response factor (0.0244 µM): 1.84e+16; ESI positive response factor (0.061 µM): 2.07e+16; ESI positive response factor (0.122 µM): 1.7e+16
–	–	Cc1cccc(C)c1N(Cn1cccn1)C(=O)CCl [Metazachlor]	–	–	–	2.65e+17	ESI positive response factor (0.0122 µM): 3.21e+17; ESI positive response factor (0.0244 µM): 3.32e+17; ESI positive response factor (0.061 µM): 3.05e+17; ESI positive response factor (0.122 µM): 2.62e+17

SMILES	ESI positive response factor (0.0175 µM)	ESI positive response factor (0.0875 µM)	ESI positive response factor (0.035 µM)	ESI positive response factor (0.175 µM)	ESI positive response factor (0.35 µM)	ESI positive response factor (0.244 µM)	further results
CCOP(=O)(OCC)OC(=CCl)c1ccc(Cl)cc1Cl [Chlorfenvinphos]	2.81e+17	3.25e+17	3.28e+17	2.98e+17	4.34e+17	–	–
Nc1cnn(-c2ccccc2)c(=O)c1Cl [Chloridazon]	7.49e+16	8.99e+16	1.01e+17	–	–	–	–
C[N+](C)(C)CCCl [Chlormequate]	1.55e+17	1.95e+17	1.26e+17	1.76e+17	1.85e+17	–	–
COc1nc(C)nc(NC(=O)NS(=O)(=O)c2ccccc2Cl)n1 [Chlorsulfuron]	–	4.88e+16	4.22e+16	5.05e+16	5.61e+16	–	ESI positive response factor (0.875 µM): 5.75e+16; ESI positive response factor (1.75 µM): 5.77e+16
Cc1ccc(NC(=O)N(C)C)cc1Cl [Chlortoluron]	1.29e+17	1.48e+17	1.32e+17	1.28e+17	1.4e+17	–	–
CCOP(=S)(OCC)Oc1cc(C)nc(C(C)C)n1 [Diazinon]	3.13e+16	3.71e+16	5.67e+16	5.13e+16	–	–	–
N#CN=C(N)N [Dicyandiamide]	–	4.26e+15	3.07e+15	3.9e+15	4.96e+15	–	ESI positive response factor (0.875 µM): 6.05e+15; ESI positive response factor (1.75 µM): 6.06e+15
CNC(=O)CSP(=S)(OC)OC [Dimethoate]	5.46e+16	5.84e+16	5.3e+16	5.04e+16	5.56e+16	–	–
CN(C)C(=O)C(c1ccccc1)c1ccccc1 [Diphenamid]	1.12e+17	1.09e+17	1.02e+17	9.79e+16	1.13e+17	–	–

Source: the supplement of paper PMC10326909
